# Literature values as cited in patent publication US7193101B2, “Esters with antimicrobial, bioresistant and fungal resistant properties” (TPAT IP, priority 2004, dated 2007).
# Experiments:
# [1] = tested on: various strains of both gram positive and gram negative bacteria
# [2] = tested on: fungi
# [3] = tested on: nematodes; conditions: prior art U.S. Pat. No. 5,013,762
# [4] = prior art U.S. Pat. No. 5,866,511
SMILES,average minimum inhibitory concentration ([1]; average over gram positive and gram negative strains),effective concentration against bacteria ([1]; various strains of gram positive and gram negative bacteria),antifungal activity [2],effectiveness for the treatment of nematodes in the soil [3],effectiveness as a general biocide [4]
"O=[N+]([O-])C(Br)(CO)CO [BNPD, 2-bromo-2-nitro-propane-1,3-diol]",around 25 ppm,1–50 ppm,antifungal,,
O=[N+]([O-])CBr [bromonitromethane],,,,effective,effective
